Measurements published in US11999716B2, “WDR5 inhibitors and modulators” (priority 2018, dated 2024).

System: MV4:11 human cancer cell lines
Assay: Cellular viability / anti-proliferative activity, CellTiter-Glo, 5 day protocol
Assay type: cell-based
Settings: Homo sapiens, MV4-11, 120 h, MV4:11 cells; 5 day incubation; CellTiter-Glo; mean of minimum two replicates; read-out: GI50 on cellular proliferation of MV4:11 human cancer cell lines
Procedure: Cellular Viability of Human Tumor Cell Lines
Anti proliferative activity using MLL-harboring cell lines. […] Viability assays are performed by dispensing 200 cells at 7200 cells/mL into each well of an opaque 384-well plate and adding compounds at the indicated concentrations in a final volume of 32 μL and a final concentration of DMSO of 0.3% for all samples. A certain range of compound concentrations is made through a series of 2-fold dilutions starting 30 μM at the highest, total 22 dilutions. After a set incubation period, 5 day protocol, the viability of cells in each well is assessed using the CellTiter-Glo assay (Promega), read on a 96 Microplane Luminometer (Cytation 3, BioTek). Serial dilutions of each cell type are performed in all assays to generate standard curves and the final densities of cells are determined within the dynamic range of the instrument. GI50 values are calculated based on XLfit software (IDBS, Guildford, UK) with Sigmoidal Dose-Response Model. Each compound is tested in minimum of two replicates. Data are expressed as mean.

| Compound | GI50 |
| --- | --- |
| CCn1cc(-c2cc(Cn3cc4n(c3=N)CCC4)cc3c2CCN(Cc2cc(OC)ccn2)C3=O)c(C(F)(F)F)n1 [Example 56, 5-(1-Ethyl-3-(trifluoromethyl)-1H-pyrazol-4-yl)-7-((3-imino-6,7-dihydro-3H-pyrrolo[1,2-c]imidazol-2(5H)-yl)methyl)-2-((4-methoxypyridin-2-yl)methyl)-3,4-dihydroisoquinolin-1(2H)-one] | 0.87 µM |
| CCn1cc(-c2cc(Cn3ccn(C)c3=N)cc3c2CCN(Cc2cc(OC)ccn2)C3=O)c(C(F)(F)F)n1 [Example 57, 5-(1-Ethyl-3-(trifluoromethyl)-1H-pyrazol-4-yl)-7-((2-imino-3-methyl-2,3-dihydro-1H-imidazol-1-yl)methyl)-2-((4-methoxypyridin-2-yl)methyl)-3,4-dihydroisoquinolin-1(2H)-one] | 0.05 µM |
| CCn1cc(-c2cc(Cn3ccn(C4CC4)c3=N)cc3c2CCN(Cc2cc(OC)ccn2)C3=O)c(C(F)(F)F)n1 [Example 58, 7-((3-Cyclopropyl-2-imino-2,3-dihydro-1H-imidazol-1-yl)methyl)-5-(1-ethyl-3-(trifluoromethyl)-1H-pyrazol-4-yl)-2-((4-methoxypyridin-2-yl)methyl)-3,4-dihydroisoquinolin-1(2H)-one] | 0.054 µM |
| COc1cc(CN2CCc3c(cc(Cn4ccn(C)c4=N)cc3-c3ncc(F)cc3C)C2=O)cc(OC)c1 [Example 59, 2-(3,5-Dimethoxybenzyl)-5-(5-fluoro-3-methylpyridin-2-yl)-7-((2-imino-3-methyl-2,3-dihydro-1H-imidazol-1-yl)methyl)-3,4-dihydroisoquinolin-1(2H)-one] | 0.274 µM |
| COc1ccnc(CN2CCc3c(cc(Cn4ccn(C)c4=N)cc3-c3cccnc3C)C2=O)c1 [Example 60, 7-((2-Imino-3-methyl-2,3-dihydro-1H-imidazol-1-yl)methyl)-2-((4-methoxypyridin-2-yl)methyl)-5-(2-methylpyridin-3-yl)-3,4-dihydroisoquinolin-1(2H)-one] | > 0.938 µM |
| COc1ccnc(CN2CCc3c(cc(Cn4ccn(C(F)F)c4=N)cc3-c3cn(C)nc3C(F)(F)F)C2=O)c1 [Example 61, 7-((3-(Difluoromethyl)-2-imino-2,3-dihydro-1H-imidazol-1-yl)methyl)-2-((4-methoxypyridin-2-yl)methyl)-5-(1-methyl-3-(trifluoromethyl)-1H-pyrazol-4-yl)-3,4-dihydroisoquinolin-1(2H)-one] | < 0.05 µM |
| COc1ccnc(CN2CCc3c(cc(Cn4cc5n(c4=N)CCC5)cc3-c3cn(C)nc3C(F)(F)F)C2=O)c1 [Example 62, 7-((3-Imino-6,7-dihydro-3H-pyrrolo[1,2-c]imidazol-2(51/)-yl)methyl)-2-((4-methoxypyridin-2-yl)methyl)-5-(1-methyl-3-(trifluoromethyl)-1H-pyrazol-4-yl)-3,4-dihydroisoquinolin-1(2H)-one] | 0.572 µM |
| CCn1cc(-c2cc(Cn3ccn(C)c3=N)cc3c2CCN(Cc2cc(OC)ccn2)C3=O)c(C)n1 [Example 63, 5-(1-Ethyl-3-methyl-1H-pyrazol-4-yl)-7-((2-imino-3-methyl-2,3-dihydro-1H-imidazol-1-yl)methyl)-2-((4-methoxypyridin-2-yl)methyl)-3,4-dihydroisoquinolin-1(2H)-one] | 0.274 µM |
| COc1cc(CN2CCc3c(cc(Cn4ccn(C)c4=N)cc3-c3c(C)nn(C)c3C)C2=O)cc(OC)c1 [Example 64, 2-(3,5-Dimethoxybenzyl)-7-((2-imino-3-methyl-2,3-dihydro-1H-imidazol-1-yl)methyl)-5-(1,3,5-trimethyl-1H-pyrazol-4-yl)-3,4-dihydroisoquinolin-1(2H)-one] | > 0.938 µM |
| COc1ccnc(CN2CCc3c(cc(Cn4ccnc4N)cc3-c3cn(C)nc3C(F)(F)F)C2=O)c1 [Example 65, 7-((2-Amino-1H-imidazol-1-yl)methyl)-2-((4-methoxypyridin-2-yl)methyl)-5-(1-methyl-3-(trifluoromethyl)-1H-pyrazol-4-yl)-3,4-dihydroisoquinolin-1(2H)-one] | < 0.05 µM |
| CCn1cc(-c2cc(Cn3ccn(C)c3=N)cc3c2CCN([C@@H](C)c2cc(OC)ccn2)C3=O)c(C(F)(F)F)n1 [Example 66, (S)-5-(1-Ethyl-3-(trifluoromethyl)-1H-pyrazol-4-yl)-7-((2-imino-3-methyl-2,3-dihydro-1H-imidazol-1-yl)methyl)-2-(1-(4-methoxypyridin-2-yl)ethyl)-3,4-dihydroisoquinolin-1(2H)-one] | < 0.05 µM |
| CCn1cc(-c2cc(Cn3ccn(C(F)F)c3=N)cc3c2CCN([C@@H](C)c2cc(OC)ccn2)C3=O)c(C(F)(F)F)n1 [Example 67, (S)-7-((3-(Difluoromethyl)-2-imino-2,3-dihydro-1H-imidazol-1-yl)methyl)-5-(1-ethyl-3-(trifluoromethyl)-1H-pyrazol-4-yl)-2-(1-(4-methoxypyridin-2-yl)ethyl)-3,4-dihydroisoquinolin-1(2H)-one] | < 0.05 µM |
| COc1cc(CN2CCc3c(cc(Cn4ccn(C)c4=N)cc3-c3ccc(C)nc3C)C2=O)cc(OC)c1 [Example 68, 2-(3,5-Dimethoxybenzyl)-5-(2,6-dimethylpyridin-3-yl)-7-((2-imino-3-methyl-2,3-dihydro-1H-imidazol-1-yl)methyl)-3,4-dihydroisoquinolin-1(2H)-one] | 0.333 µM |
| COc1cc(CN2CCc3c(OC4CCC4)cc(Cn4ccn(C)c4=N)cc3C2=O)cc(OC)c1 [Example 69, 5-Cyclobutoxy-2-(3,5-dimethoxybenzyl)-7-((2-imino-3-methyl-2,3-dihydro-1H-imidazol-1-yl)methyl)-3,4-dihydroisoquinolin-1(2H)-one] | 0.502 µM |
| COc1cc(CN2CCc3c(cc(Cn4ccn(C)c4=N)cc3-c3cn(C)nc3C)C2=O)cc(OC)c1 [Example 70, 2-(3,5-Dimethoxybenzyl)-5-(1,3-dimethyl-1H-pyrazol-4-yl)-7-((2-imino-3-methyl-2,3-dihydro-1H-imidazol-1-yl)methyl)-3,4-dihydroisoquinolin-1(2H)-one] | 0.077 µM |
| COc1ccnc([C@H](C)N2CCc3c(cc(Cn4ccn(C)c4=N)cc3-c3cn(C)nc3C(F)(F)F)C2=O)c1 [Example 71, (S)-7-((2-Imino-3-methyl-2,3-dihydro-1H-imidazol-1-yl)methyl)-2-(1-(4-methoxypyridin-2-yl)ethyl)-5-(1-methyl-3-(trifluoromethyl)-1H-pyrazol-4-yl)-3,4-dihydroisoquinolin-1(2H)-one] | < 0.05 µM |
| COc1ccnc([C@H](C)N2CCc3c(cc(Cn4ccn(C(F)F)c4=N)cc3-c3cn(C)nc3C(F)(F)F)C2=O)c1 [Example 72, (S)-7-((3-(Difluoromethyl)-2-imino-2,3-dihydro-1H-imidazol-1-yl)methyl)-2-(1-(4-methoxypyridin-2-yl)ethyl)-5-(1-methyl-3-(trifluoromethyl)-1H-pyrazol-4-yl)-3,4-dihydroisoquinolin-1(2H)-one] | < 0.05 µM |
| COc1cc(CN2CCc3c(OCC(F)(F)F)cc(Cn4ccn(C)c4=N)cc3C2=O)cc(OC)c1 [Example 73, 2-(3,5-Dimethoxybenzyl)-7-((2-imino-3-methyl-2,3-dihydro-1H-imidazol-1-yl)methyl)-5-(2,2,2-trifluoroethoxy)-3,4-dihydroisoquinolin-1(2H)-one] | > 0.938 µM |
| CCn1cc(-c2cc(Cn3ccn(C)c3=N)cc3c2CCN(Cc2cc(C)nn2C)C3=O)c(C(F)(F)F)n1 [Example 74] | > 0.938 µM |
| COc1cc(CN2CCc3c(OCC4CC4)cc(Cn4ccn(C)c4=N)cc3C2=O)cc(OC)c1 [Example 75, 5-(Cyclopropylmethoxy)-2-(3,5-dimethoxybenzyl)-7-((2-imino-3-methyl-2,3-dihydro-1H-imidazol-1-yl)methyl)-3,4-dihydroisoquinolin-1(2H)-one] | > 0.938 µM |
| COc1cc(CN2CCc3c(cc(Cn4ccn(C)c4=N)cc3-c3c(C)noc3C)C2=O)cc(OC)c1 [Example 76, 2-(3,5-Dimethoxybenzyl)-5-(3,5-dimethylisoxazol-4-yl)-7-((2-imino-3-methyl-2,3-dihydro-1H-imidazol-1-yl)methyl)-3,4-dihydroisoquinolin-1(2H)-one] | > 0.938 µM |
| CCn1cc(-c2cc(Cn3ccn(C)c3=N)cc3c2CCN(Cc2cn(C)nc2C)C3=O)c(C(F)(F)F)n1 [Example 77, 2-((1,3-Dimethyl-1H-pyrazol-4-yl)methyl)-5-(1-ethyl-3-(trifluoromethyl)-1H-pyrazol-4-yl)-7-((2-imino-3-methyl-2,3-dihydro-1H-imidazol-1-yl)methyl)-3,4-dihydroisoquinolin-1(2H)-one] | > 0.938 µM |
| Cc1cc([C@H](C)N2CCc3c(OCC4CC4)cc(Cn4ccn(C)c4=N)cc3C2=O)ccc1F [Example 78, (S)-5-(Cyclopropylmethoxy)-2-(1-(4-fluoro-3-methylphenyl)ethyl)-7-((2-imino-3-methyl-2,3-dihydro-1H-imidazol-1-yl)methyl)-3,4-dihydroisoquinolin-1(2H)-one] | > 0.938 µM |
| Cc1cc([C@H](C)N2CCc3c(cc(Cn4ccn(C)c4=N)cc3-c3cn(C)nc3C(F)(F)F)C2=O)ccc1F [Example 79, (S)-2-(1-(4-Fluoro-3-methylphenyl)ethyl)-7-((2-imino-3-methyl-2,3-dihydro-1H-imidazol-1-yl)methyl)-5-(1-methyl-3-(trifluoromethyl)-1H-pyrazol-4-yl)-3,4-dihydroisoquinolin-1(2H)-one] | < 0.05 µM |
| COc1cc(CN2CCc3c(cc(Cn4ccoc4=N)cc3-c3cccnc3C(F)(F)F)C2=O)cc(OC)c1 [Example 80, 2-(3,5-Dimethoxybenzyl)-7-((2-iminooxazol-3(2H)-yl)methyl)-5-(2-(trifluoromethyl)pyridin-3-yl)-3,4-dihydroisoquinolin-1(2H)-one] | < 0.05 µM |
